Usually Ki stands for a measure of affinity in units of concentration, obtained from inhibition or displacement.

In experiment [1] the target is T1, full-length RORγt in Jurkat cells (Homo sapiens, UniProt P51449).
T1 construct: transcriptional activity of the full-length RORγt in Jurkat cells; host or cells: Jurkat cells (ATCC TIB-152)
T1 sequence (P51449 1-497 isoform P51449-2): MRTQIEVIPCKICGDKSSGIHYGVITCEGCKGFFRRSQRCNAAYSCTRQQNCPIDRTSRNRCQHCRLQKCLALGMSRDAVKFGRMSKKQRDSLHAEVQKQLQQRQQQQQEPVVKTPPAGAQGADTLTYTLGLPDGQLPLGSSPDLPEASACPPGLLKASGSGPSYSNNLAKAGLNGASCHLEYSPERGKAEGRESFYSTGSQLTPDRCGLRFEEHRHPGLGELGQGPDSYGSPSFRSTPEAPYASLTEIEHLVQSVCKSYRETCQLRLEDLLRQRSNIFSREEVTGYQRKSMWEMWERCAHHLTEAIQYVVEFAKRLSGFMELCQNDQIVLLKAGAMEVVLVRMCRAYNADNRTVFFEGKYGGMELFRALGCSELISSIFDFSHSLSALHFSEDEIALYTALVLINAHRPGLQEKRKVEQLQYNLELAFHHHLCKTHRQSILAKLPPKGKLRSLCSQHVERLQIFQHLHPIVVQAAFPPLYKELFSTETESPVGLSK
Nature of the experiment: RORγt 5×RORE Assay in Jurkat Cells (Assay 2). It counts as cell-based. As to conditions: 5×RORE luciferase reporter, read-out: Avg ROR γt/5x IC50. Put shortly:
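Inverse agonism measured as reduced NanoGlo signal from secreted NanoLuc in conditioned supernatant after 16-18 hrs compound exposure (37° C, 0.1% DMSO). Reporter: 5×RORE-driven secNluc, co-transfected with full-length RORγt into Jurkat cells cultured in delipidated-FBS, phenol-red-free RPMI.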
(In a reporter assay the amount or activity of a reporter protein is the signal.)

The target of experiment [2] is T2, recombinant RORγ Ligand Binding Domain (LBD) protein (Homo sapiens, UniProt P51449).
T2 construct: 6×His; GST
T2 sequence (P51449 269-508 limits assumed): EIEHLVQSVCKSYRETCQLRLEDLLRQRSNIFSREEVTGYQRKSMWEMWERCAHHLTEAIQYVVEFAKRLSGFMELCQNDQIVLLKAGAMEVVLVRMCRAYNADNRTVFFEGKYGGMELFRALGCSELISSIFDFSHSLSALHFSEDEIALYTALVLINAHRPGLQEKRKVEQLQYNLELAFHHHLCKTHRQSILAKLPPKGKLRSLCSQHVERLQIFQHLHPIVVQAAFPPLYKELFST
Nature of the experiment: Radio-Ligand RORγ Binding Assay (Assay 1). As to conditions: radio-ligand competition, RORγ LBD, read-out: Avg ROR Bind Ki. A digest of the protocol: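 Cell-free SPA competition between compound and 25-hydroxy[26,27-^3H]-cholesterol for 6×His-GST-tagged RORγ LBD in 50 mM HEPES pH 7.4 with NaCl, MgCl2, glycerol, CHAPS, octylglucoside and DTT. Mix was shaken 20 min, held 10 min at rt, then read after poly-Lys YSi beads. IC50 came from a four-parameter fit, and Ki from radioligand KD.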

Setting [3] is: head without unit (Tables 15, 17).
Setting [4] is: 25-hydroxy [26,27-3H]-cholesterol.

Like-named read-outs stand apart in the source and are kept apart here.

Take `CCS(=O)(=O)c1ccc([C@H](CO)NC(=O)c2cc3ccnc(OC[C@H]4CC[C@H](C(F)(F)F)CC4)c3n2C)cc1` [Hy4-2, N-((R)-1-(4-(ethylsulfonyl)phenyl)-2-hydroxyethyl)-1-methyl-7-(((1r,4R)-4-(trifluoromethyl)cyclohexyl)methoxy)-1H-pyrrolo[2,3-c]pyridine-2-carboxamide]: the IC50 in experiment [1] (setting [3]) is less than 100 nM. In experiment [2] (setting [3]), the Ki was less than 100 nM.
As to `CCS(=O)(=O)c1ccc(CNC(=O)c2cc3ccnc(OCc4ccc(C(F)(F)F)cc4)c3n2C)cc1` [Hy4-3, N-(4-(ethylsulfonyl)benzyl)-1-methyl-7-((4-(trifluoromethyl)benzyl)oxy)-1H-pyrrolo[2,3-c]pyridine-2-carboxamide], in experiment [1] (setting [3]), the IC50 lay within 100 to 1000 nM. The Ki in experiment [2] (setting [3]) is less than 100 nM.
Take `CCS(=O)(=O)c1ccc([C@H](CO)NC(=O)c2cc3ccnc(OCc4ccc(C(F)(F)F)cc4)c3n2C)cc1` [Hy4-4, (R)-N-(1-(4-(ethylsulfonyl)phenyl)-2-hydroxyethyl)-1-methyl-7-((4-(trifluoromethyl)benzyl)oxy)-1H-pyrrolo[2,3-c]pyridine-2-carboxamide]: in experiment [1] (setting [3]), the IC50 was 100 to 1000 nM. Moreover, the inhibitory constant (Ki) in experiment [2] (setting [3]) was less than 100 nM.
As for `CCS(=O)(=O)c1ccc(CNC(=O)c2cn(C)c3c(OCc4ccc(C(F)(F)F)cc4)nccc23)cc1` [Hy5-3, N-(4-(ethylsulfonyl)benzyl)-1-methyl-7-((4-(trifluoromethyl)benzyl)oxy)-1H-pyrrolo[2,3-c]pyridine-3-carboxamide], the IC50 in experiment [1] is less than 100 nM. The inhibitory constant (Ki) in experiment [2] (setting [4]) was less than 100 nM.
Turning to `CCS(=O)(=O)c1ccc(CNC(=O)c2sc3nc(C)nc(OCc4ccc(C(F)(F)F)cc4)c3c2C)cc1` [Hy6-1, N-(4-(ethylsulfonyl)benzyl)-2,5-dimethyl-4-((4-(trifluoromethyl)benzyl)oxy)thieno[2,3-d]pyrimidine-6-carboxamide], the IC50 in experiment [1] lay in the range of 100 to 1000 nM. The Ki in experiment [2] (setting [4]) was less than 100 nM.
For `CCS(=O)(=O)c1ccc(CNC(=O)c2sc3nc(C)nc(OC[C@H]4CC[C@H](C(F)(F)F)CC4)c3c2C)cc1` [Hy6-2, N-(4-(ethylsulfonyl)benzyl)-2,5-dimethyl-4-(((1r,4r)-4-(trifluoromethyl)cyclohexyl)methoxy)thieno[2,3-d]pyrimidine-6-carboxamide], in that order: 100 to 1000 nM and less than 100 nM.
Take `CCS(=O)(=O)c1ccc([C@H](CO)NC(=O)c2sc3nc(C)nc(OCc4ccc(C(F)(F)F)cc4)c3c2C)cc1` [Hy6-3, (R)-N-(1-(4-(ethylsulfonyl)phenyl)-2-hydroxyethyl)-2,5-dimethyl-4-((4-(trifluoromethyl)benzyl)oxy)thieno[2,3-d]pyrimidine-6-carboxamide]: the IC50 in experiment [1] is less than 100 nM. Also, the Ki in experiment [2] (setting [4]) was less than 100 nM.
As to `CCS(=O)(=O)c1ccc([C@H](CO)NC(=O)c2sc3nc(C)nc(OC[C@H]4CC[C@H](C(F)(F)F)CC4)c3c2C)cc1` [Hy6-4, N-((R)-1-(4-(ethylsulfonyl)phenyl)-2-hydroxyethyl)-2,5-dimethyl-4-(((1r,4R)-4-(trifluoromethyl)cyclohexyl)methoxy)thieno[2,3-d]pyrimidine-6-carboxamide], the IC50 in experiment [1] is less than 100 nM. The Ki in experiment [2] (setting [4]) is less than 100 nM.
As to “Mixture of N-((R)-1-(4-(ethylsulfonyl)phenyl)-2-hydroxyethyl)-3-methyl-1-(((3S,6S)-6-(trifluoromethyl)tetrahydro-2H-pyran-3-yl)methoxy)isoquinoline-6-carboxamide and N-((R)-1-(4-(ethylsulfonyl)phenyl)-2-hydroxyethyl)-3-methyl-1-(((3R,6R)-6-(trifluoromethyl)tetrahydro-2H-pyran-3-yl)methoxy)isoquinoline-6-carboxamide [Hy1A-18.3]”, the IC50 in experiment [1] was more than 1000 nM. Moreover, in experiment [2] (setting [4]), the Ki is less than 100 nM.
